Measurements published in patent EP0738149B1 (priority 1994, dated 1995).
Structures can show the parent of a compound that is named as a salt.

Legend:
mice = test: Maximal electroshock (MES) model in mice, i.p.;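 on all read-outs here: Electroshock-induced convulsion model serving to demonstrate antiepileptic efficacy against generalized and partial seizures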; type: in vivo; settings: for ED50: Mus musculus, ip; for activity in the MES model in mice: statement in words
[1] = Neurotoxicity in mice (rotorod ataxia test), i.p.; settings: mouse, in vivo, ip
Procedure: (§1) Neurotoxicity of the claimed agents was also assessed in mice (i.p. administration) by the rotorod ataxia test and/or in rats (p.o. administration) by positional sense test and gait stance test. […] The term quantitating the neurotoxicity is the medial neurological toxic dose (TD50), was determined in the above tests.

rats [2] = test: Maximal electroshock (MES) model in rats, p.o.;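 on all read-outs here: rat MES model gauging antiepileptic efficacy versus generalized and partial seizures after oral dosing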; type: in vivo; settings: rats, p.o., Table 15; for ED50: Rattus norvegicus, po, read-out: RATS MES 50
[3] = Neurotoxicity in rats (positional sense test and gait stance test), p.o.; settings: rat, in vivo, po
Procedure: as §1

rats [4] = test: as above; settings: rats, p.o.; Table 16
Procedure: as §1

male ICR albino mice = test: Hypobaric hypoxia survival time in mice; type: in vivo
Procedure: Dessicator B was disconnected and allowed to equilibrate with room air whilst dessicator A was evacuated to a pressure of 100mmHg. […] The survival time from the moment of induction of hypoxia to the time of cessation of respiration was recorded for each mouse for a maximum of 15 minutes after which time room air was reintroduced to dessicator B. Survivors were monitored for signs of lethargy or vitality.
Effect of drug treatment was assessed as the percent of the survival time of the drug treated group with respect to the saline injected or vehicle injected control group. Control groups were run twice, before and after each experimental group and consisted of 12-16 mice in groups of 4 mice. Each experimental group always consisted of 4 mice to ensure a constant residual volume of oxygen in all tests. The effect of each dose of test drug was determined in duplicate i.e. two groups of 4 mice.
All drugs were administered intra-peritoneally at the dose indicated one hour prior to exposure to hypoxia.

[5] = 50 mg/kg ip one hour prior to hypoxia
[6] = 100 mg/kg ip one hour prior to hypoxia

Row | SMILES | ED50 (mice; Table 15) | TD50 ([1]; MICE TD50, mice, Table 15) | TD50 [3] | RATS MES 50 (rats [2]) | also measured
1 | NC(=O)CNC1CCCc2ccccc21 (racemic) [Example 4, (rac)-N-(2-Acetamido)-1-aminotetralin] |  |  |  |  | MICE MES ED50 (mice; i.p., Table 15): <100 mg/kg
2 | CCCC(=O)NC1CCc2ccccc21 (racemic) [Example 11, (rac)-N-Butyryl-1-aminoindan] | < 300 mg/kg | < 300 mg/kg | > 50 mg/kg |  | ED50 (rats [2]): < 50 mg/kg
3 | CN(C)C1CCc2ccccc21 (racemic) [Example 15, (rac)-N,N-Dimethyl-1-aminoindan.HCl] |  | < 100 mg/kg | > 50 mg/kg | 50 mg/kg | TD50 ([1]; MICE TD50, mice, Table 16): < 100 mg/kg; RATS TD50 (rats [4]): >50 mg/kg
4 | c1ccc(CNC2CCc3ccccc32)cc1 (racemic) [Example 16, (rac)-N-Benzyl-1-aminoindan.HCl] | < 50 mg/kg |  | > 50 mg/kg | 50 mg/kg | 
5 | CC(=O)NC1CCc2cccc(C)c21 (racemic) [Example 20, (rac)-7-Methyl-N-acetyl-1-aminoindan] | < 100 mg/kg |  | > 50 mg/kg |  | TD50 ([1]; MICE TD50): 100 mg/kg; ED50 (rats [2]): < 50 mg/kg
6 | COc1ccc2c(c1)C(N)CC2 (racemic) [Example 25, (rac)-6-Methoxy-1-aminoindan.HCl] | < 100 mg/kg | > 100 mg/kg |  | 50 mg/kg | 
7 | Cc1cccc2c1C(N)CC2 (racemic) [Example 28, (rac)-7-Methyl-1-aminoindan.HCl] | < 100 mg/kg | < 100 mg/kg | > 50 mg/kg | <50 mg/kg | PROTECTION % OF RESPECTIVE CONTROL (male ICR albino mice; [5]): 361±106 % OF RESPECTIVE CONTROL; PROTECTION % OF RESPECTIVE CONTROL (male ICR albino mice; [6]): 941±34 % OF RESPECTIVE CONTROL
8 | COc1ccc2c(c1OC)CCC2N (racemic) [Example 31, (rac)-4,5-Dimethoxy-1-aminoindan.HCl] | < 100 mg/kg | < 100 mg/kg | > 50 mg/kg |  | activity in the MES model in mice (mice): showed activity
9 | NC1CCc2ccc(O)cc21 (racemic) [Example 34, (rac)-6-Hydroxy-1-aminoindan.HCl] | < 300 mg/kg | > 300 mg/kg |  |  | activity in the MES model in mice (mice): showed activity
10 | Cc1ccc2c(c1)CCC2N (racemic) [Example 38, (rae)-5-Methyl-1-aminoindan.HCl] | < 100 mg/kg | < 100 mg/kg | > 50 mg/kg | 50 mg/kg | 
11 | Cc1cc(C)c2c(c1)C(C)CC2N.Cl (racemic) [Example 41, (rac)-3,5,7-Trimethyl-1-aminoindan.HCl] |  |  |  |  | PROTECTION % OF RESPECTIVE CONTROL (male ICR albino mice; [5]): 187±41 % OF RESPECTIVE CONTROL; PROTECTION % OF RESPECTIVE CONTROL (male ICR albino mice; [6]): 644±316 % OF RESPECTIVE CONTROL
12 | NC1CCc2cccc(O)c21 (racemic) [Example 42, (rac)-7-Hydroxy-1-aminoindan.HCl] |  |  | > 50 mg/kg | <50 mg/kg | PROTECTION % OF RESPECTIVE CONTROL (male ICR albino mice; [5]): 179±170 % OF RESPECTIVE CONTROL; PROTECTION % OF RESPECTIVE CONTROL (male ICR albino mice; [6]): 228±119 % OF RESPECTIVE CONTROL
